Reference: ChEMBL document CHEMBL4130363, “Synthesis and pharmacological evaluation of benzamide derivatives as potent and selective sigma-1 protein ligands” (Eur J Med Chem, 2017)
≈ marks a conversion by molar mass, not a printed value.

Legend:
[1] = target: Glutamate [NMDA] receptor (Homo sapiens) (UniProt Q05586+Q12879+Q13224+O15399+O60391+Q14957+Q8TCU5); experiment: Antagonist activity at recombinant human NMDA receptor assessed as inhibition of agonist-induced cAMP levels at 10 uM; type: protein-complex assay
[2] = target: 5-hydroxytryptamine receptor 7 (Homo sapiens) (UniProt P34969); experiment: Antagonist activity at recombinant human 5-HT7R assessed as inhibition of agonist-induced cAMP induction at 10 uM by HTRF assay; type: functional
5-hydroxytryptamine receptor 7 (Homo sapiens), sequence (P34969 whole entry): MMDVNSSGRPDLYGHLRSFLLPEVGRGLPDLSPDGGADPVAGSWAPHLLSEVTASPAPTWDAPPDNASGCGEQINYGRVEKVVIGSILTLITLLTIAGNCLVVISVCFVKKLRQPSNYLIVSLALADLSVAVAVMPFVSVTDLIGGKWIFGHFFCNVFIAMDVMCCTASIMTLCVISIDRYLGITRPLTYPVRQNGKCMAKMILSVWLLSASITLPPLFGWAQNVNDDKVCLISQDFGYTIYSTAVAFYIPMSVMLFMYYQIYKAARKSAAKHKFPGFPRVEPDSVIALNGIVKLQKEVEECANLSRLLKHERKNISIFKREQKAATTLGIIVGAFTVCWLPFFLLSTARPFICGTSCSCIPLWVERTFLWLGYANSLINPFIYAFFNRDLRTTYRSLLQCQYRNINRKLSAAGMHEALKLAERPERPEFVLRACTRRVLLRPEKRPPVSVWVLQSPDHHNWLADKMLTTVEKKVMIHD

[3] = target: T1, Adenosine receptor A3 (Homo sapiens) (UniProt P0DMS8); experiment: Antagonist activity at recombinant human adenosine A3 receptor assessed as inhibition of agonist-induced cAMP induction at 10 uM by HTRF assay; type: functional
T1 sequence (whole entry): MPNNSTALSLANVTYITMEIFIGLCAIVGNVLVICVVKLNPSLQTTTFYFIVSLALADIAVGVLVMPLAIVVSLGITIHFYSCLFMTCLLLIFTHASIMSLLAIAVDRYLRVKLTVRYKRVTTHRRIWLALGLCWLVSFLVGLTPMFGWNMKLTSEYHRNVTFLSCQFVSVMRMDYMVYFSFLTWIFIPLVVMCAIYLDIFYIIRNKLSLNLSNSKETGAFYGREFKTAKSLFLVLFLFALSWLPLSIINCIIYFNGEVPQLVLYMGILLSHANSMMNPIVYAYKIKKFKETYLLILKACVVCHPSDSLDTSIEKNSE

[4] = test system: SH-SY5Y; experiment: Cytotoxicity against human SH-SY5Y cells assessed as reduction in cell viability after 72 hrs by MTT assay; type: cell-based
[5] = Metabolic stability in human liver microsomes by LC/MS analysis; type: ADME, microsome
[6] = n-Octanol-PBS buffer distribution coefficient, log D of the compound at pH 7.4; type: physicochemical
[7] = Aqueous solubility of the compound in PBS buffer at pH 7.8; type: physicochemical
[8] = target: T2, Adenosine receptor A1 (Homo sapiens) (UniProt P30542); experiment: Antagonist activity at recombinant human adenosine A1 receptor assessed as inhibition of agonist-induced cAMP induction at 10 uM by HTRF assay; type: functional
T2 sequence (whole entry): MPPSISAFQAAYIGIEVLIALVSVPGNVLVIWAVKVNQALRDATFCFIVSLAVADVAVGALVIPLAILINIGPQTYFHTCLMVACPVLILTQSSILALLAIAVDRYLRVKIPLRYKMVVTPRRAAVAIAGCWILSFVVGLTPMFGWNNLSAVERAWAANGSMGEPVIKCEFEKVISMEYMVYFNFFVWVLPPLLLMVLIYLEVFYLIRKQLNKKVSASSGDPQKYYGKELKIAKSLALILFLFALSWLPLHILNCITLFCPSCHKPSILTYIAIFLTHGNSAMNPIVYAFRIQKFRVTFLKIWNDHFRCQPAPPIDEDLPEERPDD

[9] = target: Sigma intracellular receptor 2 (Homo sapiens, UniProt Q5BJF2); experiment: Displacement of [3H]-DTG from S2R in human Jurkat cell membranes after 1 hr in presence of (+)-pentazocine by liquid scintillation counting
Sigma intracellular receptor 2, sequence (Q5BJF2 whole entry): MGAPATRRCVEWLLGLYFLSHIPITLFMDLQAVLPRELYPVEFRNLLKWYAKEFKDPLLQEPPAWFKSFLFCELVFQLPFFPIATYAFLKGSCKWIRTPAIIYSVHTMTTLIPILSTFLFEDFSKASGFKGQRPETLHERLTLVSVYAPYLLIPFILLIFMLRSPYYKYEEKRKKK

[10] = target: Sigma non-opioid intracellular receptor 1 (Homo sapiens, UniProt Q99720); experiment: Displacement of [3H](+)-pentazocine from S1R in human Jurkat cell membranes after 2 hrs by liquid scintillation counting
Sigma non-opioid intracellular receptor 1, sequence (Q99720 whole entry): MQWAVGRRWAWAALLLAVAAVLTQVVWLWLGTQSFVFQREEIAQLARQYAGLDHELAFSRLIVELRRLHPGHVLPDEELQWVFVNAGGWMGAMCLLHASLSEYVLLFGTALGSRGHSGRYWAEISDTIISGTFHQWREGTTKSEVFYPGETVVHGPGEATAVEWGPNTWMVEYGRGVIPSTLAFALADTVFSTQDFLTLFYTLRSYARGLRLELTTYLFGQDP

Row | SMILES | inhibition [1] | inhibition [2] | inhibition [3] | IC50 [4] | Stability [5] | logD [6] | solubility [7] | inhibition [8] | Ki [9] | Ki [10]
1 | CN(CCNC(=O)c1ccc([N+](=O)[O-])cc1)Cc1ccccc1 | 3% | -2% | 5% | > 100 µM | – | – | – | – | – | –
2 | CN(CCCNC(=O)c1ccc(C(F)(F)F)cc1)Cc1ccccc1 | 14% | -9% | 18% | – | – | – | – | – | – | –
3 | CN(CCCNC(=O)c1ccc(Cl)cc1)Cc1ccccc1 | 8% | -1% | 16% | > 100 µM | 77% | 2.51 | 173 µM (≈ 54.8 µg/mL) | – | – | –
4 | CCCc1ccc(C(=O)NCCCN(C)Cc2ccccc2)cc1 | 15% | 2% | 8% | – | – | – | – | -9% | – | –
5 | CN(CCNC(=O)c1ccc(C#N)cc1)Cc1ccccc1 | 1% | -2% | -6% | > 100 µM | – | – | – | 2% | – | –
6 | COc1cccc(C(=O)NCCCN(C)Cc2ccccc2)c1 | 0% | -3% | – | – | – | – | – | -2% | – | –
7 | CN(CCCNC(=O)c1ccc(Cl)cc1)CCc1ccccc1 | 16% | – | 10% | > 100 µM | – | – | – | -10% | – | –
8 | CN(CCCNC(=O)c1ccc([N+](=O)[O-])cc1)Cc1ccccc1 | 12% | – | -7% | – | – | – | – | – | – | –
9 | COc1ccc(C(=O)NCCCN(C)Cc2ccccc2)cc1 | – | -5% | 12% | – | – | – | – | – | – | –
10 | CN(CCCNC(=O)c1cccc(Br)c1)Cc1ccccc1 | 5% | -4% | – | > 100 µM | – | – | – | – | – | –
11 | CN(CCNC(=O)c1ccc(Cl)cc1)Cc1ccccc1 | 4% | – | -1% | > 100 µM | – | – | – | – | 0.85 µM | 0.0036 µM
12 | CN(CCCNC(=O)c1ccc(Br)cc1)Cc1ccccc1 | 5% | 0% | 24% | – | – | – | – | – | – | –
